Values quoted from earlier work, collected in patent US9498539B2, “Affinity-based controlled release system” (priority 2012, dated 2016).
Where two headings read alike, the source gives them in different places.

What was measured:
[1] = target: Streptavidin (Streptomyces avidinii, UniProt P22629); settings: streptavidin binds 2-iminobiotin, medium affinity; cited from earlier work
[2] = 24 h; cited from earlier work
[3] = target: Src homology 3 domain (SH3) (Saccharomyces cerevisiae, UniProt P15891); settings: read-out: Kd (affinity to SH3), SH3-binding peptide to SH3, not part of the composition, cited from earlier work
Sequence of Src homology 3 domain (SH3) (P15891 532-592 limits assumed): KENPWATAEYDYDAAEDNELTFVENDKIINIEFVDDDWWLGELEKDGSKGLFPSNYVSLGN

Sequence of Streptavidin (P22629 25-183): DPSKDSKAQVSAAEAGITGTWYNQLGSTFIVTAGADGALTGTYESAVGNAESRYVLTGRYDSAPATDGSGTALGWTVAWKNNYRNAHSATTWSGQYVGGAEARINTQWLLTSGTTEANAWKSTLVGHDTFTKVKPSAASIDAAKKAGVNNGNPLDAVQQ

Molecule: N=C1N[C@H]2[C@H](CS[C@H]2CCCCC(=O)O)N1 [2-iminobiotin]
- Kd [1]: 12.5 µM

Molecule: FGF-2: basic fibroblast growth factor, literature data of Nakamura et al.
- remaining bioactivity [2]: < 10%

Molecule: KPPVVKKPHYLS [compound 4]
- Kd [3]: 27 µM
- Kd ([3]; listed as weak binder): 10 µM
